Consider four compounds from US20210121527A1, “METHODS OF TREATING MINIMAL RESIDUAL CANCER” (ICAHN SCHOOL OF MEDICINE AT MOUNT SINAI, priority 2018, published 2021).

Bounds are passed on as bounds.

In one experiment the test system is secondary kinase targets. Description: Kinase selectivity by enzymatic biochemical assay (FIG. 2E). Conditions: enzymatic assays. On the procedure:
(§1) Biochemical assays: Recombinant human EIF2AK3 (PERK) catalytic domain (amino acids 536-1116; Cat # PV5107), GFP-eIF2a (Cat # PV4809) substrate, and Terbium-labelled phospho-eIF2a antibody (Cat # PR8956B) were purchased from Invitrogen (Carlsbad, Calif.). HIS-SUMO-GCN2 catalytic domain (amino acids 584-1019) was expressed and purified from E. coli. TR-FRET kinase assays were performed in the absence or presence of inhibitors in a reaction buffer consisting of 50 mM HEPES, pH 7.5, 10 mMMgCl2, 1.0 mM EGTA, and 0.01% Brij-35, and 100-200 nM GFP-eIF2a substrate. […] Following the addition of test compound, the reaction was initiated by addition of enzyme and incubated at room temperature for 45 minutes. The reaction was stopped by addition of EDTA to a final concentration of 10 mM and Terbium-labelled phospho-eIF2α antibody was added at a final concentration of 2 nM and incubated for 90 minutes. The resulting fluorescence was monitored in an EnVison® Multilabel reader (PerkinElmer, Waltham, Mass.). TR-FRET ratios and the resulting IC50 values were determined from the fitted inhibition curves. Biochemical specificity profiling was performed at Cerep (Redmond, Wash.) and DiscoverX (San Diego, Calif.).

A further experiment deals with T1, GCN2 catalytic domain (Homo sapiens, UniProt Q9P2K8).
T1 construct: HIS-SUMO-GCN2 catalytic domain (amino acids 584-1019); HIS (N); SUMO (N); made in house; host or cells: E. coli
T1 sequence (Q9P2K8 584-1019): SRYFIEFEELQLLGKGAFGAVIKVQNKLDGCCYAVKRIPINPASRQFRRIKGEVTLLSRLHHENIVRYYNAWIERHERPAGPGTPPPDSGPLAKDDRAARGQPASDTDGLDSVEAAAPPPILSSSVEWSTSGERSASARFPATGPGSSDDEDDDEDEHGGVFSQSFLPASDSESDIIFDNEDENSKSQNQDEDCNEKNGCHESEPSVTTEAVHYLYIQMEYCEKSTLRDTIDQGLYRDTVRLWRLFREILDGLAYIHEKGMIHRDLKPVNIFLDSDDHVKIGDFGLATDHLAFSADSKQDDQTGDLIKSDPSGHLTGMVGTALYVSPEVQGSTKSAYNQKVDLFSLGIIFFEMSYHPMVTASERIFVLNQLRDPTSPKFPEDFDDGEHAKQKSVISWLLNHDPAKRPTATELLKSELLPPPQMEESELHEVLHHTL
In words: GCN2 biochemical TR-FRET kinase assay using purified eIF2a as substrate. Conditions: read-out: GCN2 Enzyme IC50. As for the experimental part: as §1, with “TR-FRET” for “Biochemical assays: Recombinant human EIF2AK3 (PERK) catalytic domain (amino acids 536-1116; Cat # PV5107), GFP-eIF2a (Cat # PV4809) substrate, and Terbium-labelled phospho-eIF2a antibody (Cat # PR8956B) were purchased from Invitrogen (Carlsbad, Calif.). HIS-SUMO-GCN2 catalytic domain (amino acids 584-1019) was expressed and purified from E. coli. TR-FRET”
(Time-resolved FRET reads energy transfer from a long-lived donor to a nearby acceptor.)

The target of experiment [1] is T2, PERK phosphorylation in MCF10A-HER2 cells (Homo sapiens, UniProt Q9NZJ5).
T2 construct: endogenous in cells; host or cells: MCF10A-HER2 cells in suspension for 24 hours
T2 sequence (Q9NZJ5 30-1116): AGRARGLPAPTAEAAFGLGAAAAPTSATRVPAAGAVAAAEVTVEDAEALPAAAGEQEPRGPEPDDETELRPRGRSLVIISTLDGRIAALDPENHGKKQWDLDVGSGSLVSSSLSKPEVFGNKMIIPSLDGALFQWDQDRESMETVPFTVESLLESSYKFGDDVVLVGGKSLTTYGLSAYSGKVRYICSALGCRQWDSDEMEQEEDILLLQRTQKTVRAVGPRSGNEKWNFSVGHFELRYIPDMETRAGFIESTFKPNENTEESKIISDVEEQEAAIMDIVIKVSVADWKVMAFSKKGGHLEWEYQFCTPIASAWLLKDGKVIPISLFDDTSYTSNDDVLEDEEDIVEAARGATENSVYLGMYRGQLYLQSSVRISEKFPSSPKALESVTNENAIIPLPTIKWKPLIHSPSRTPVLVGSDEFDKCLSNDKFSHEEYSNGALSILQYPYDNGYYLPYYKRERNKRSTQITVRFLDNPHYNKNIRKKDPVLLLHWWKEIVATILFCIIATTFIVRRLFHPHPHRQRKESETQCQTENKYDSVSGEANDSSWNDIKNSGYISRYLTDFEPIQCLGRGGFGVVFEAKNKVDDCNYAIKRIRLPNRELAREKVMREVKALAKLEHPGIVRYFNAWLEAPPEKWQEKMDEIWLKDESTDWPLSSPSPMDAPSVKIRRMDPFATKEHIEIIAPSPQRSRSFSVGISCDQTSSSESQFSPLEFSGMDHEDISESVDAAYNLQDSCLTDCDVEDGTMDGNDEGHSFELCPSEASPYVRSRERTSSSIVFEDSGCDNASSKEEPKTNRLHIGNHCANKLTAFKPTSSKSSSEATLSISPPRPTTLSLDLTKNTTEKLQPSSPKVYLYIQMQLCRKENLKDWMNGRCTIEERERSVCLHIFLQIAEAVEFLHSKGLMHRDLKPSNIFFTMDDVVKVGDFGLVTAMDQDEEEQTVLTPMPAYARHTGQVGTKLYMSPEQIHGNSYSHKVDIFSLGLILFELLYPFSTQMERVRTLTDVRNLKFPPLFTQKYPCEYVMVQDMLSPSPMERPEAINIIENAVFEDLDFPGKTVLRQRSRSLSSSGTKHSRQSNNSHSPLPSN
Description: Immunoblot of PERK phosphorylation in stressed cells. Conditions: 2 μM; cells in suspension for 24 hours. The class given is cell-based. (In western blotting, separated proteins are transferred to a membrane and probed.)

With `Cc1cccc(CC(=O)N2CCc3c2ccc(-c2cn(C)c4ncnc(N)c24)c3F)n1` [GSK2656157, reference compound], the secondary kinase targets entry in the experiment on secondary kinase targets is given as “several secondary targets below 5 μM”. Besides, the IC50 on GCN2 catalytic domain is more than 200 µM. For the same compound, the “PERK phosphorylation (immunoblot)” value in experiment [1] was “inhibition of PERK phosphorylation”.

On to `CNC(=O)c1nc(-c2ccc(NC(=O)[C@H](O)c3cc(F)cc(F)c3)cc2C)cnc1N` [LY2, 3-amino-6-[4-[[(2R)-2-(3,5-difluorophenyl)-2-hydroxy-acetyl]amino]-2-methyl-phenyl]-N-methyl-pyrazine-2-carboxamide], for which, in the experiment with secondary kinase targets, the secondary kinase targets entry is “several secondary targets below 5 μM”. Further, the IC50 at GCN2 catalytic domain turned out to be 10.8 µM. Also, in experiment [1], the “PERK phosphorylation (immunoblot)” value is on record as “inhibition of PERK phosphorylation”.

With `Cc1cc(NC(=O)[C@H](O)c2cc(F)cc(F)c2)ccc1-c1cnc(N)c(C(=O)NC(C)C)c1` [LY4, 2-amino-5-[4-[[(2R)-2-(3,5-difluorophenyl)-2-hydroxy-acetyl]amino]-2-methyl-phenyl]-N-isopropyl-pyridine-3-carboxamide], the secondary kinase targets entry in the experiment on secondary kinase targets was “no secondary kinase targets below 15 μM concentration”. For the same compound, on GCN2 catalytic domain, the IC50 is 18.1 µM. Also, the “PERK phosphorylation (immunoblot)” value in experiment [1] is given as “inhibition of PERK phosphorylation”.

For the compound `Cc1cc(NC(=O)[C@H](O)c2cccc(F)c2)ccc1-c1cn(C)c2ncnc(N)c12` [LY3, (2R)-N-[4-(4-amino-7-methyl-pyrrolo[2,3-d]pyrimidin-5-yl)-3-methyl-phenyl]-2-(3-fluorophenyl)-2-hydroxy-acetamide], the secondary kinase targets entry in the experiment with secondary kinase targets is “several secondary targets below 5 μM”. The concentration for half-maximal inhibition (IC50) at GCN2 catalytic domain turned out to be 16.4 µM. Moreover, the “PERK phosphorylation (immunoblot)” value in experiment [1] was “inhibition of PERK phosphorylation”.

As a reminder, the IC50 is the concentration needed to halve the response being measured.
